Values belong to the molecule of their own block, whether it stands above or below them.
Experiments:
Cytotoxicity assay = type: cell-based; conditions: human, HCT 116 cells
Rpn11 = Rpn11 (Homo sapiens, UniProt O00487); assay: Rpn11 fluorescence polarization deubiquitination assay; type: biochemical
BRISC complex = BRISC complex (Homo sapiens, UniProt P46736); assay: BRISC activity assay; type: biochemical; conditions: Figure S1
[1] = system: Ub^G76V-GFP Hela cells (proteasome activity); assay: Ub^G76V-GFP degradation assay; type: cell-based; conditions: Homo sapiens, read-out: Ub^G76VGFP Hela Cell IC50
Csn5 = Csn5 (Homo sapiens, UniProt Q92905); assay: CSN5 activity assay; type: biochemical
AMSH = molecular target: T1, AMSH (Homo sapiens, UniProt O95630); assay: AMSH activity assay; type: biochemical
T1 sequence (O95630 1-424): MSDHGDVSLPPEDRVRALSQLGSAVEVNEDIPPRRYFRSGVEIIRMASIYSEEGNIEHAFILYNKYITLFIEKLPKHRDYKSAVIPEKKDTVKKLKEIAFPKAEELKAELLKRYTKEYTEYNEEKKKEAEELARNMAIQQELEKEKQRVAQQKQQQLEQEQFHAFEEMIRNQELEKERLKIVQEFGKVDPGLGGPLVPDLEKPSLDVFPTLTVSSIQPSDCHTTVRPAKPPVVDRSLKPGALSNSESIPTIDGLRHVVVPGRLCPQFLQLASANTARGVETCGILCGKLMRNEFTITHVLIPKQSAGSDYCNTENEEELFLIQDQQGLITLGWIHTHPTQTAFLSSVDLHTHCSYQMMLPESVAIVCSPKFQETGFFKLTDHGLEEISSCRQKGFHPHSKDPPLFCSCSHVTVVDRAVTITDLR

[2] = HCT 116 Cytotoxicity IC50, Table 2

Structure (SMILES): Sc1cccc2ncccc12 [Compound 7c, Quinoline-5-thiol]
- IC50 at 72 h (Cytotoxicity assay; HCT 116 Cytotoxicity, Table 1): > 100 µM

- inhibition of Rpn11 in MBP library screen (Rpn11; fragment concentration of 200 μM): essentially complete inhibition
- ligand efficiency (Rpn11; from Rpn11 IC50): 0.69
- inhibition of BRISC (BRISC complex): significant inhibition
Structure (SMILES): Sc1cccc2cccnc12 [8TQ, 8-thioquinoline]
- IC50 at 72 h (Cytotoxicity assay; HCT 116 Cytotoxicity, Table 1): 1.3 µM

Structure (SMILES): Cc1ccc2cccc(S)c2n1 [Compound 9c, 2-Methylquinoline-8-thiol]
- IC50 at 72 h (Cytotoxicity assay; [2]): > 50 µM

- fold weaker Rpn11 activity compared to 8TQ (Rpn11): ~ 6 fold
Structure (SMILES): Sc1ccnc2cccnc12 [Compound 8e, 1,5-Naphthyridine-4-thiol]

Structure (SMILES): CSc1cccc2cccnc12 [Compound 6, 8-(Methylthio)quinoline]
- IC50 at 72 h (Cytotoxicity assay; HCT 116 Cytotoxicity, Table 1): > 100 µM

Structure (SMILES): Sc1cccc2ccccc12 [Compound 2]
- IC50 at 72 h (Cytotoxicity assay; HCT 116 Cytotoxicity, Table 1): > 100 µM

- IC50 (Rpn11; Rpn11 IC50): ~82 µM
- IC50 (Rpn11; Rpn11 IC50, Table 5, control compounds): 82 ± 14 µM
- IC50 [1]: > 100 µM
- IC50 (Csn5): > 100 µM
- IC50 (AMSH): > 100 µM
Structure (SMILES): O=C(NCCc1nccs1)c1cnc2c(S)ccnc2c1 [Compound 50f, 8-Mercapto-N-(2-(thiazol-2-yl)ethyl)-1,5-naphthyridine-3-carboxamide]

- IC50 [1]: > 100 µM
Structure (SMILES): CSc1cccc2cc(C(=O)NCCc3nccs3)cnc12 [Compound 48, 8-(Methylthio)-N-(2-(thiazol-2-yl)ethyl)quinoline-3-carboxamide]

Structure (SMILES): Cc1ccnc2c(S)cccc12 [Compound 11c, 4-Methylquinoline-8-thiol]
- IC50 at 72 h (Cytotoxicity assay; [2]): > 10 µM

Structure (SMILES): Cc1cccc2cccnc12 [Compound 3]
- IC50 at 72 h (Cytotoxicity assay; HCT 116 Cytotoxicity, Table 1): > 100 µM

- IC50 [1]: > 100 µM
Structure (SMILES): O=C(NCCc1nccs1)c1cnc2c(O)cccc2c1 [Compound 47, 8-Hydroxy-N-(2-(thiazol-2-yl)ethyl)quinoline-3-carboxamide]
